These results are taken from patent publication US9682060B2, “Small molecules that induce intrinsic pathway apoptosis” (The Board of Trustees of the University of Illinois, priority 2015, dated 2017).

Entries after “also recorded” stand apart in the source; their conditions may differ.

For one series, the system named is HFF-1. The series can be described thus: Raptinal toxicity in various cell lines, 24 hour IC50. The class given is cell-based. As to conditions: HFF-1 (Human Foreskin Fibroblast); 24 hour incubation; mean ± SD.
The target in the next series is T1, recombinant procaspase-3 (Homo sapiens, UniProt P42574).
T1 construct: His tag (inferred from the nickel-NTA purification); made in house
T1 sequence (P42574 whole entry): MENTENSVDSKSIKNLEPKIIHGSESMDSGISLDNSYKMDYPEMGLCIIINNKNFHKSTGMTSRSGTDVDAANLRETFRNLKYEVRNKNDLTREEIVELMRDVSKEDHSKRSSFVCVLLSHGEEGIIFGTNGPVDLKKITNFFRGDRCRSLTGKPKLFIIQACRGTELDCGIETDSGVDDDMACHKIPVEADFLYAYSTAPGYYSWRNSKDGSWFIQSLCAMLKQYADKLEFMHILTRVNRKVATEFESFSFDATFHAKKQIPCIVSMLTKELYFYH
Description: In vitro activation of procaspase-3. As to conditions: up to 100 μM; 250 nM procaspase-3; Ac-DEVD-AFC cleavage. The class given is biochemical. The method, then: In Vitro Activation of Procaspase-3.
Procaspase-3 was expressed as described previously and purified with Qiagen nickel-NTA resin (Hsu et al., 2012). Increasing concentrations of Raptinal (0, 10, 25, 50 and 100 μM) and 25 μM 1541B were assessed for their capacity to enhance the activity of procaspase-3 over time. 250 nM procaspase-3 was treated with compounds in caspase activity buffer (50 mM HEPES, 50 mM KCl, 0.1 mM EDTA, 10 mM DTT, 0.01% Triton X-100, pH 7.4) and activity was assessed by cleavage of Ac-DEVD-AFC (50 μM) at designated time points.

The subject of series [1] is U-937 cells. The series can be described thus: Mitochondrial permeability transition pore (MPTP) calcein-cobalt assay. In kind it is cell-based, Human. The note with it: calcein-cobalt quenching. How it is done:
Mitochondrial Permeability Transition Pore (MPTP) Calcein-Cobalt Assay.
U-937 cells (1×10^6 cells/mL in HBSS) were loaded with calcein-AM (20 nM final concentration) for 45 minutes at 37° C. The cells were washed with HBSS and resuspended in RPMI and plated into a 24-well plate (1×10^6 cells in 1 mL). The cells were treated with Raptinal (10 μM) for 15, 30, 45, 60 and 90 minutes. Cobalt(II) chloride was added (10 μL of 80 mM stock in HBSS) to the cells 10 minutes prior to the end of the time points. The cells were pelleted and resuspended in HBSS (0.5 mL) and calcein fluorescence was measured by flow cytometry. As a positive control for MPTP, ionomycin and calcium were added to calcein-labeled cells in HBSS 10 minutes prior to analysis by flow cytometry.

Another series concerns zebrafish embryos. The series can be described thus: Apoptosis in zebrafish (secretory annexin V-YFP). In kind it is in vivo. The note with it: transgenic embryos 24 hours post fertilization; 10 μM for 1.5 hours. The method, then: Zebrafish experiments were performed as described (van Ham et al., 2010). TuAB zebrafish embryos were used for all experiments and were incubated at 28° C. in HEPES-buffered E3 zebrafish medium (pH 7.2) in the dark. Chemical treatments (10 μM Raptinal or vehicle, 1% v/v final DMSO) were performed in multi-well plates in buffered E3 medium. Images were taken using an AxioCam MRc camera and AxioVision 4.8 software (Zeiss). To quantify apoptosis, the number of secA5-YFP+ apoptotic cells was counted manually in embryos using a fluorescence dissection stereomicroscope (Discovery V8; Zeiss, Germany).

A short description of series [2]: Pharmacokinetic profiling in mice. The class given is in vivo, C57BL/6 mice. The note with it: 37.5 mg/kg intravenously. How it is done: Pharmacokinetics and Toxicity Profiling in Mice.
All animal studies were performed with prior approval by the University of Illinois at Urbana-Champaign IACUC committee. Eight week old female C57BL/6 mice were used for all pharmacokinetic and toxicity experiments. […]. For toxicity assessment, Raptinal was administered intravenously as a single-dose injection across a dose range of 15-60 mg/kg, and mice were sacrificed 7 days post-injection for evidence of hematologic toxicity (n=3 mice/group).

In series [3] the test system is caspase-3/-7 activity in MIA PaCa-2 cells. The series can be described thus: Whole cell caspase activity assay (Ac-DEVD-AFC). The class given is cell-based, Human. As to conditions: transfected MIA PaCa-2 cells; 10 μM for 1 hour. The method, then: Whole Cell Caspase Activity Assay.
The caspase activity assay was conducted in 96-well plates using transfected cells (see Example 3 for transfection protocol). Transfected cells were treated with 10 μM Raptinal for 1 hour, which corresponded to 40% of maximal caspase-3/-7 activity achievable by Raptinal. After treatment, the media was replaced with PBS (150 μL) and 50 μL of freshly made 4× caspase assay buffer (containing 20 μM Ac-DEVD-AFC) (Stennicke and Salvesen, 1997). After one hour incubation at room temperature (^˜22° C.) in the dark, the fluorescence of cleaved AFC was read on a spectrofluorometer (Ex: 380 nm, Em: 500 nm). The results were expressed as the relative caspase-3/-7 activity and normalized by designating the vehicle (0.5% DMSO) as 0% activity and Raptinal treatment as 100% activity.

The test system of series [4] is adherent cell lines (HOS, H1993, SK-MEL-5, MIA PaCa-2). Description: Adherent cell lines: cell death by AV/PI staining and immunoblots. In kind it is cell-based, Human. As to conditions: HOS, H1993, SK-MEL-5, MIA PaCa-2, 10 μM.
In series [5] the test system is U-937 cells. Description: Cell morphology by light, scanning electron and transmission electron microscopy. In kind it is cell-based, Human. As to conditions: 10 μM. How it is done:
Cell Morphology by Light Microscopy.
Phase contrast images of U-937 cells treated with 10 μM Raptinal were taken with an Olympus DP-21 microscope digital camera. The cells were kept warm between images by returning the plate to the 37° C. incubator.
Scanning Electron Microscopy.
U-937 cells (4×10^6 cells in 8 mL 0.45 micron-filtered cell culture media) were treated with 1% DMSO) or 10 μM Raptinal in 10 cm culture dishes for 60 minutes. The cells were centrifuged (250×g, 5 min) and the media aspirated. Ice-cold Karnovsky's fixative (1 mL of 0.45 micron filtered) was added to the cell pellet which was resuspended by gently agitation. The cells were fixed overnight at 4° C. and submitted for scanning electron microscopy (SEM) sample processing. The cells were stained with OsO4, placed on filter paper and dehydrated. After mounting, the cells were coated with Pd/Au and scanning electron microscopy was performed.
Transmission Electron Microscopy.
U-937 cells (4 mL of 5×10^5 cells/ml) were treated with DMSO or 10 μM of Raptinal for 5, 30, and 60 minutes. The cells were centrifuged 400×g for 5 min and the media aspirated. The cells were fixed by the addition of Karnovsky's fixing solution (0.5 mL) and placed in a 4° C. fridge overnight. The next day, the cells were microwave fixed, stained with 2% OsO4, washed with 3% KCN and enbloc stained with uranyl acetate. The samples were dehydrated with acetonitrile and ethanol, suspended in pure epoxy, and embedded overnight at 85° C. The embedded samples were cut into thick and then thin sections and these were mounted and viewed.

For `O=CC1(C2(C=O)c3ccccc3-c3ccccc32)c2ccccc2-c2ccccc21` [Raptinal, [9,9′]bifluorenyl-9,9′-dicarbaldehyde], in the series with HFF-1, 3.3 ± 0.2 µM corresponded to half-maximal inhibition (IC50). Besides, on recombinant procaspase-3, the “direct activation of recombinant procaspase-3 (enzymatic activity)” value is on record as “does not directly activate; also recorded: no increase in enzymatic activity”. In addition, the “mitochondrial permeability transition pore (MPTP) formation” value with U-937 cells [1] is “does not induce; also recorded: did not undergo mitochondrial-permeability-transition-pore (MPTP) formation”. Besides, in the series with zebrafish embryos, the apoptotic cells stood at 80 cells per fish. Moreover, the peak plasma concentration in series [2] was found to be 134.5 ± 2.2 µM; in series [2] (mean ± SD, n=3) it was 54.4 ± 0.9 µg/mL. Also, in series [2] (female, C57BL/6, mouse, in vivo, iv, mean ± SD, n=3, read-out: elimination half-life), the half-life (usually the time needed for the level to fall by half in the phase considered) is 1.53 ± 0.0967 h. In addition, the “caspase-3/-7 activity as share of maximal activity achievable by Raptinal” value in series [3] was determined as 40%. For the same compound, in series [4] (AV/PI), the “speed of cell death induction versus 1541B and staurosporine” value was “substantially faster than the other agents”. Further, the “procaspase-3 activation and PARP-1 cleavage within 2 hours” value in series [4] (immunoblots) was “the only agent capable of activating procaspase-3 and inducing subsequent PARP-1 cleavage within 2 hours”. For the same compound, the “mitochondrial morphology (transmission electron microscopy)” value in the series on U-937 cells [5] (after 5 minutes) is recorded as “substantial mitochondrial swelling”. Moreover, the blebbing entry is “modest” in the series with U-937 cells [5] (at 30 min) and “extensive” with U-937 cells [5] (at 60 min).
